The supplement of paper PMC10307832

Tests used:
Test in all cases: relative viability (nuclei count vs DMSO), 5 days (fraction); higher = more cells survive
[1] = compound: CCN(CC)CCNC(=O)c1c(C)[nH]c(/C=C2\C(=O)Nc3ccc(F)cc32)c1C [Sunitinib] + Cc1nc(NC(=O)N2CCC[C@H]2C(N)=O)sc1-c1ccnc(C(C)(C)C(F)(F)F)c1 [Alpelisib] (partner 2 µM)
In short: (§1)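 Dosing by pin tool came one day after lung cancer cell lines were seeded in 1536-well plates, using either one drug or a fixed anchor-drug dose plus five library-drug doses (not always all listed) in √10 steps. After 5 days, nuclei were counted on 4× images. Relative viability is treated-well nuclei count divided by vehicle-well nuclei count, and values are medians of duplicate plates.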

[2] = compound: CCN(CC)CCNC(=O)c1c(C)[nH]c(/C=C2\C(=O)Nc3ccc(F)cc32)c1C [Sunitinib] + O=C(CCCCCCC(=O)Nc1ccccc1)NO [Vorinostat] (partner 1 µM)
In short: as §1

[3] = compound: CCN(CC)CCNC(=O)c1c(C)[nH]c(/C=C2\C(=O)Nc3ccc(F)cc32)c1C [Sunitinib] + CC1(C)CCC(c2ccc(Cl)cc2)=C(CN2CCN(c3ccc(C(=O)NS(=O)(=O)c4ccc(N[C@H](CCN5CCOCC5)CSc5ccccc5)c(S(=O)(=O)C(F)(F)F)c4)cc3)CC2)C1 [Navitoclax] (partner 0.5 µM)
In short: as §1

[4] = compound: CCN(CC)CCNC(=O)c1c(C)[nH]c(/C=C2\C(=O)Nc3ccc(F)cc32)c1C [Sunitinib] + C[C@]1(O)C[C@@H](c2nc(-c3ccc4ccc(-c5ccccc5)nc4c3)c3c(N)nccn32)C1 [Linsitinib] (partner 1 µM)
In short: as §1

Cell Line	relative viability ([1]; first compound 0.06325 µM)	relative viability ([1]; first compound 0.2 µM)	relative viability ([1]; first compound 0.6325 µM)	relative viability ([1]; first compound 2 µM)	relative viability ([2]; first compound 0.02 µM)	relative viability ([2]; first compound 0.06325 µM)	relative viability ([2]; first compound 0.2 µM)	relative viability ([2]; first compound 0.6325 µM)	relative viability ([2]; first compound 2 µM)	relative viability ([3]; first compound 0.02 µM)	relative viability ([3]; first compound 0.06325 µM)	relative viability ([3]; first compound 0.2 µM)	relative viability ([3]; first compound 0.6325 µM)	relative viability ([3]; first compound 2 µM)	relative viability ([4]; first compound 0.06325 µM)	relative viability ([4]; first compound 0.2 µM)	relative viability ([4]; first compound 0.6325 µM)	relative viability ([4]; first compound 2 µM)	relative viability ([1]; first compound 0.02 µM)	relative viability ([4]; first compound 0.02 µM)
LOU-NH91	0.71	0.76	0.752	0.652	0.928	0.96	0.997	1	0.884	0.727	0.665	0.746	0.734	0.564	0.983	0.959	0.95	0.87		
HCC-15		1.01	0.872	0.94	0.905	0.93	0.984	0.789	0.85	0.705	0.765		0.744	0.691	0.838	0.928	0.902	0.86	0.831	0.803
HCC-827	1.04	1.01	1.04	0.887	0.843	0.861	0.668	0.875	0.714	1.01	1.05	1.04	1.01	0.978	0.887	0.98	1	0.936	1.02	0.971
NCI-H1734	0.673	0.869	0.669	0.641	0.694	0.91	1.05	0.782	0.782	0.785	0.815	0.954	0.846	0.906	0.95	0.936	0.944	0.756	0.626	0.844
NCI-H322M	0.739	0.855	0.822	0.664	0.9	0.807	0.931	0.847	0.702	1.25	1.18	1.3	1.25	1.34	0.969	0.985	0.942	0.754	0.728	0.871
SW 1573	0.827	0.932	0.84	0.784	0.643	0.915	0.783	1.07	0.899	1.04	1.18	1.07	1.12	0.976	1	0.917	0.999		0.715	0.987
NCI-H2126	0.76	0.818	0.747	0.715	0.73	0.906	0.857	0.808	0.84	0.833	0.865	0.904	0.871	0.798	0.695	0.74	0.759	0.717	0.736	0.719
201T		1.06		1.02	0.932	1.05	1.02	0.954	0.965	1.19	1.18	1.21	1.18	1.2	0.941	1.06	1.09	1.04	1.04	1
NCI-H2009	1.2	1.27	1.19	1.12	0.725	0.765	0.828	0.746	0.723	1.18	1.19	1.26	1.16	1.26	1.18	1.2	1.31	1.27	1.18	1.2
NCI-H2087	1.06	1.11	1.23	1.01	0.748	0.664	0.667	0.715	0.712	0.976	0.99	1.14	1.01	0.969	1.01	0.938		0.889	0.904	
CAL-12T	1.19	1.25	1.43	1.14	0.541	0.864	1.04	0.902	0.682	1.18	1.32	1.44	1.36	1.36	0.82	1.2	1.06	1.01	0.957	0.807
UMC-11	1.03	0.892	0.929	0.912	0.329	0.373	0.401	0.349	0.388	0.302	0.307	0.367	0.281	0.272	0.958	1.08	1.01	0.914	0.945	0.958
NCI-H1793	0.727	0.823	0.696	0.787		0.867	0.989	0.91	0.825		0.528	0.438	0.458	0.472	0.856	1.08	0.838	0.93		
SK-LU-1	1.25	1.12	1.09	0.669	0.821	0.7	0.821	0.86	0.657	0.768	0.6	0.796		0.727	1.09	1.28			0.863	1.29
NCI-H1437	0.974		1.01	0.905	0.804	0.839	0.876	0.887		1.06	1.2	1.19	1.13	1.16	1	1.2		1.02	0.949	0.975
NCI-H2023	0.584	0.697	0.64	0.516	0.575	0.585	0.906	0.812	0.488		1.05	1.11	1.06	0.975	0.594	0.754	0.788	0.582	0.638	0.709
LK-2	0.906	1.28	1.18	0.916	0.259	0.391	0.311	0.253	0.413	0.737	0.963	1.12	0.862	0.836	0.516	0.658	0.712	0.637	0.942	0.504
RERF-LC-KJ	0.826	0.932		0.789	0.701	0.733	0.674	0.66	0.707	0.844	0.899	1.13	0.876	0.977	0.869	0.968	1.07	0.855	0.775	0.868
HCC-44	0.909	0.966	0.863	0.826	1.15	1.09	1.15	1.09	1.14	0.96	0.964	1.05	0.946	0.969	0.757	0.772	0.665	0.727	0.72	0.641
IA-LM	0.812	0.773	0.919	0.87	0.975	0.864	0.987	0.952	1.03	0.767	0.912	0.929	0.872	0.814	0.719		0.561	0.94	0.645	0.558

Cell Line	relative viability ([1]; first compound 0.06325 µM)	relative viability ([1]; first compound 0.2 µM)	relative viability ([1]; first compound 0.6325 µM)	relative viability ([1]; first compound 2 µM)	relative viability ([2]; first compound 0.02 µM)	relative viability ([2]; first compound 0.06325 µM)	relative viability ([2]; first compound 0.2 µM)	relative viability ([2]; first compound 0.6325 µM)	relative viability ([2]; first compound 2 µM)	relative viability ([3]; first compound 0.02 µM)	relative viability ([3]; first compound 0.06325 µM)	relative viability ([3]; first compound 0.2 µM)	relative viability ([3]; first compound 0.6325 µM)	relative viability ([3]; first compound 2 µM)	relative viability ([4]; first compound 0.06325 µM)	relative viability ([4]; first compound 0.2 µM)	relative viability ([4]; first compound 0.6325 µM)	relative viability ([4]; first compound 2 µM)	relative viability ([1]; first compound 0.02 µM)	relative viability ([4]; first compound 0.02 µM)
NCI-H1755	0.915	1.01	0.94		0.735	0.878	0.897	0.758	0.842				1.04	0.993	0.98		0.979	0.941	0.938	0.996
NCI-H2170	0.782	0.998	0.914	0.777	0.78	0.826	0.927	0.842	0.709	0.607	0.681	0.572	0.651	0.445					0.757	
NCI-H441	0.83	0.766	0.569	0.487	0.67	0.833		0.984	0.85		0.684	0.946	0.808	0.368	0.491	0.542	0.555	0.612		0.406
LXF-289	1.02	1.13	1.12	1.04	0.688	0.857	0.824	0.779	0.752	0.93	0.94	1	0.945	0.915	0.978	1.02	0.988		1.01	0.947
ABC-1	0.994	1.2	1.26	0.837	1.22	1.38	1.05	1.09							0.766	0.855	0.923	0.718	1.08	1.03
NCI-H650	0.608	1.25	1.14	1.16	0.382	0.439	0.423	0.55	0.395						0.912	1.09		1.08	0.891	0.9
NCI-H1648					0.58	0.465	0.356	0.338	0.442											
NCI-H1792	0.56	0.78	0.682	0.824						0.664		0.777	0.537	0.66	0.479	0.419	0.511	0.561	0.578	0.556
SW 900					0.516	0.626	0.541	0.604	0.597											
NCI-H661	0.547	0.515	0.582	0.759	0.751	0.78	0.826	0.817	0.839						0.513	0.496	0.572	0.598	0.597	0.488
NCI-H1650					0.558	0.606	0.752	0.659	0.582	1.48	1.18	1.4	1.34	1.33						
NCI-H358	0.803		0.762	0.451	0.588	0.684	0.79	0.77	0.419						0.685	0.863	0.592	0.447	0.902	0.718
NCI-H522					0.831	1.04	0.927	0.922	1.05											
A549	0.825	0.884	0.872	0.776						1.16	1.3	1.36		1.07	0.638	0.669	0.716	0.579	0.686	0.563
LCLC-103H	0.945	0.993	0.958	0.959	0.778	0.918	0.868	0.827	0.867						1.02	1.11	1.1	1.08	0.822	0.987
NCI-H1299		1.06	1.08	1.06						1.03	1.11	1.05	1.03	1.09		1.05	0.998	1.05	1.02	0.922
Calu-6	1.1	1.11	1.16	0.898						0.896	0.772	0.923	0.972	0.914	1.08		1.08	0.981	0.904	0.874
NCI-H1563	0.952	0.884	0.93	0.965											1.23	1.23	1.21	1.22	0.984	1.27
ChaGo-K-1					0.736	0.831	0.887	0.773	0.746	0.911	1.02	0.978	0.914	0.936						
NCI-H1703	0.161	0.199	0.154	0.188						0.621	0.264	0.289	0.254	0.184	0.18	0.257	0.174	0.17	0.211	0.51
